Measured values published in paper PMC9102502, “The Influence of Selected Antipsychotic Drugs on Biochemical Aspects of Alzheimer’s Disease” (International Journal of Molecular Sciences, 2022).
Where two headings read alike, the source gives them in different places.

Columns and labels:
astrocytes = assay: WST-1 viability under AAPH-induced oxidative stress, astrocytes; assay type: cell-based, human; settings: for astrocyte viability compared with the control (pure AAPH): benperidol 5 and 10 μg/L, penfluridol 12.5 μg/L, pimozide 15 μg/L, promazine 25 and 50 μg/L
Method: (§1) WST-1 assay (Takara, Takara Bio Europe, Saint-Germain-en-Laye, France) was used to assess the effects of antipsychotics on the growth of HUVEC and astrocytes. The experiments were conducted as described previously. HUVEC were seeded at a density of 7500 cells, and astrocytes at 5000 cells per well on 96-well microplates and cultured for 24 h followed by treatment with compounds at ½ × TPCmax and TPCmax or pure medium as a control (v = 100 μL) for another 24 h (37 °C, 5% CO2). Subsequently, the cells were washed with culture medium (100 μL) and WST-1 reagent diluted in medium (10 μL of reagent + 90 μL of medium) was added. The plates were incubated at 37 °C in 5% CO2 for another 90 min for HUVEC and 60 min for astrocytes. The absorbance was read at 450 nm using a microplate reader (iMARK, Bio-Rad, Hercules, CA, USA). The cells viability was expressed as a percentage of the control samples which constituted 100% viability.
(§2) Moreover, the WST-1 assay was used to evaluate potential protective effects of antipsychotics on the growth of HUVEC and astrocytes under conditions of AAPH-induced oxidative stress. The experimental conditions were the same as in viability studies. AA at the final concentration of 10 μg/mL was used as an antioxidant control. After reaching the confluence, the antipsychotics were added at concentrations equaling ½ × TPCmax and TPCmax. After 1 h incubation under standard conditions, 50 μL AAPH was added to the wells containing tested compounds or AA. The AAPH concentration was chosen on the basis of preliminary experiments—17.5 mmol/L in HUVEC experiments, and 15.0 mmol/L in the case of astrocytes.

AChE = AChE (Homo sapiens, UniProt P22303); assay: Synergism of antipsychotics with donepezil/rivastigmine (binary mixtures), AChE; settings: for CI (combination index), AChE: ComboSyn;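 on all read-outs here: antipsychotic concentration kept fixed across all measurements, selected from estimated therapeutic plasma levels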
Text: (§6) In turn, the concentrations of antipsychotics were constant in every measurement, and were chosen on the basis of estimated therapeutic plasma concentrations.
(§7) Automatic simulation of synergism and antagonism at all doses or effect levels is possible by computer software, based on algorithms. Calculation of the combination index (CI) and isobologram analyses enable to quantitatively determine drug interactions, where CI < 1, =1 and >1 indicate synergism, additive effect and antagonism, respectively. […] The software also allowed us to display the dose–effect curve, the median–effect plot and the dose-reduction index (DRI) plot [36].

BuChE = BuChE (Homo sapiens, UniProt P06276); assay: Synergism of antipsychotics with donepezil/rivastigmine (binary mixtures), BuChE;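 further: combination index derived by median-effect analysis of combined drug effects on the cholinesterase, with values below 1 meaning synergism, exactly 1 additivity and above 1 antagonism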
Text: as §6, §7

HUVEC cells = assay: WST-1 viability under AAPH-induced oxidative stress, HUVEC; assay type: cell-based, human; settings: AAPH 17.5 mmol/L; for viability of HUVEC under AAPH: relative to pure medium control
Method: as §1, §2

[1] = biological target: T1, recombinant human β-amyloid (1–42) (Homo sapiens, UniProt P05067); assay: Beta-amyloid aggregation, Thioflavin T fluorescence; assay type: biochemical
T1 construct: recombinant human β-amyloid (1–42; ultrapure); purchased Sigma-Aldrich (St. Louis, MO, USA)
Method: Aβ42 peptide was dissolved in DMSO and left to hydrate for a few minutes. The solution was centrifuged at 10,000 rpm for 5 min at 4 °C to separate any precipitated material. The solution at a concentration of 220 μmol/L was stored in small aliquots at a temperature of −30 °C and before each experiment it was restored at 37 °C for 15 min. Test samples containing Aβ42 solution at the final concentration of 20 μmol/L was incubated with antipsychotics at concentrations equaling their TPC and 1/2 × TPC (v = 10 µL). The final volume of the test samples was 100 μL. The positive control constituted a sample of Aβ42 peptide, whereas the negative control contained tannic acid at the final concentrations of 0.1 µmol/L and 10 µmol/L. The fibrillation reaction was set up by addition of thioflavin ThT dye at a concentration of 5 µmol/L. The fluorescence intensity was measured at room temperature with Ex/Em = 440 nm/484 nm (Synergy H1; BioTek, Winooski, VT, USA). The measurements of fluorescence intensity expressed as relative fluorescence units (RFU) were taken at 10, 30, 60 and 90 min and then after 24 and 48 h. The fluorescence intensity measured for control equaled 100% of Aβ aggregation and it was used to estimate the inhibitory properties of the tested antipsychotics.

[2] = biological target: T2, human erythrocyte acetylcholinesterase (Homo sapiens, UniProt P22303); assay: AChE inhibition, modified Ellman's method; assay type: biochemical
T2 construct: solution of hemolyzed erythrocytes diluted 400-fold; from tissue; host or cells: hemolyzed erythrocytes from blood of healthy human donors
Method: (§3) The activity of both cholinesterases (AChE and BuChE) were assessed spectrophotometrically according to the Ellman’s method with some modifications by Worek et al.. This test development included experimental determination of the optimal testing conditions. For all measurements, 37 °C was used as the best temperature for enzymatic determinations in material of human origin.
(§4) The solution of plasma 200-fold diluted with 0.9% NaCl and solution of hemolyzed erythrocytes diluted 400-fold with 0.9% were incubated (37 °C, 15 min) with 5 μL DTNB (0.01 mol/L) and 10 μL tested compound at a wider range of concentration than the therapeutic range in order to assess the overall effect of the compound on human esterases (AChE and BuChE). The controls without antipsychotics, containing only DTNB and diluted plasma or diluted solution of hemolyzed erythrocytes, were prepared. […] The final volume of a sample was 500 μL. […] The maximal velocity of the reaction was determined on the basis of changes in absorbance over time.
(§5) AChE SI (selectivity index) was calculated by using the following formula: SI = IC50 of BuChE/IC50 of AChE. However, BuChE SI was defined as IC50 of AChE/IC50 of BuChE. Maximal velocity (Vmax) and the Michaelis constant (Km) were calculated with the use of linear regression—according to the Hanes–Woolf plot.

[3] = biological target: T3, human plasma butyrylcholinesterase (Homo sapiens, UniProt P06276); assay: BuChE inhibition, modified Ellman's method; assay type: biochemical
T3 construct: The solution of plasma 200-fold diluted with 0.9% NaCl; from tissue; host or cells: citrated plasma from blood of healthy human donors
Method: as §3, §4, §5

[4] = donepezil 0.005 μmol/L + antipsychotic at TPCmax, CI < 1 synergism, > 1 antagonism
[5] = donepezil 0.01 μmol/L + antipsychotic at TPCmax
[6] = donepezil 0.02 μmol/L + antipsychotic at TPCmax
[7] = donepezil 0.05 μmol/L + antipsychotic at TPCmax
[8] = donepezil 0.1 μmol/L + antipsychotic at TPCmax
[9] = rivastigmine 5 μmol/L + antipsychotic at TPCmax
[10] = rivastigmine 10 μmol/L + antipsychotic at TPCmax
[11] = rivastigmine 15 μmol/L + antipsychotic at TPCmax
[12] = rivastigmine 25 μmol/L + antipsychotic at TPCmax
[13] = rivastigmine 40 μmol/L + antipsychotic at TPCmax
[14] = rivastigmine 75 μmol/L + antipsychotic at TPCmax
[15] = rivastigmine 100 μmol/L + antipsychotic at TPCmax
[16] = donepezil 2 μmol/L + antipsychotic at TPCmax, ComboSyn
[17] = donepezil 5 μmol/L + antipsychotic at TPCmax, ComboSyn
[18] = donepezil 10 μmol/L + antipsychotic at TPCmax, ComboSyn
[19] = donepezil 20 μmol/L + antipsychotic at TPCmax, ComboSyn
[20] = donepezil 50 μmol/L + antipsychotic at TPCmax, ComboSyn
[21] = donepezil 100 μmol/L + antipsychotic at TPCmax, ComboSyn
[22] = rivastigmine 0.05 μmol/L + antipsychotic at TPCmax, ComboSyn
[23] = rivastigmine 0.1 μmol/L + antipsychotic at TPCmax, ComboSyn
[24] = rivastigmine 0.25 μmol/L + antipsychotic at TPCmax, ComboSyn
[25] = rivastigmine 0.5 μmol/L + antipsychotic at TPCmax, ComboSyn
[26] = rivastigmine 0.75 μmol/L + antipsychotic at TPCmax, ComboSyn
[27] = rivastigmine 1 μmol/L + antipsychotic at TPCmax, ComboSyn
[28] = rivastigmine 2.5 μmol/L + antipsychotic at TPCmax, ComboSyn
[29] = rivastigmine 5 μmol/L + antipsychotic at TPCmax, ComboSyn
[30] = TPC (bromperidol 25 μg/L, quetiapine 400 μg/L)
[31] = ½ × TPC (bromperidol 12.5 μg/L, quetiapine 200 μg/L)
[32] = rivastigmine 50 μmol/L + antipsychotic at TPCmax

T1 sequence (P05067 672-713 limits assumed): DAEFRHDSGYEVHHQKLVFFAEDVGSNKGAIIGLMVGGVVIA
T2 sequence (P22303 32-617 isoform P22303-2 limits assumed): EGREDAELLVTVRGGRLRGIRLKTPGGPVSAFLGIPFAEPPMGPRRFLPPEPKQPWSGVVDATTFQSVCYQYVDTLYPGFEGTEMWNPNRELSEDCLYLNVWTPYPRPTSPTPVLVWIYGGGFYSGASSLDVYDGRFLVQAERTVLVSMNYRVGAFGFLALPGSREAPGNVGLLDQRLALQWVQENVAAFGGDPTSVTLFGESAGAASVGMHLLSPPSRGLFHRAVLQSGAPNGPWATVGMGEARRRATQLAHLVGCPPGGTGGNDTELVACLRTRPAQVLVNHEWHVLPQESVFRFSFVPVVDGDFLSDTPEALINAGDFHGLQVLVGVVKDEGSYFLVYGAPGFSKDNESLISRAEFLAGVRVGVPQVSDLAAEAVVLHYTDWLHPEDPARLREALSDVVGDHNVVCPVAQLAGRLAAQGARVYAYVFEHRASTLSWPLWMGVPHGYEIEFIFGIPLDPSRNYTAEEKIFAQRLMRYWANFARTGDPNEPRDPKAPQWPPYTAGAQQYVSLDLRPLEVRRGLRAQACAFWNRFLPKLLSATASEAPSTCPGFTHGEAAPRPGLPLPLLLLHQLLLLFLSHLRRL
AChE, sequence (P22303 32-617 isoform P22303-2 limits assumed): as above
BuChE, sequence (P06276 29-602): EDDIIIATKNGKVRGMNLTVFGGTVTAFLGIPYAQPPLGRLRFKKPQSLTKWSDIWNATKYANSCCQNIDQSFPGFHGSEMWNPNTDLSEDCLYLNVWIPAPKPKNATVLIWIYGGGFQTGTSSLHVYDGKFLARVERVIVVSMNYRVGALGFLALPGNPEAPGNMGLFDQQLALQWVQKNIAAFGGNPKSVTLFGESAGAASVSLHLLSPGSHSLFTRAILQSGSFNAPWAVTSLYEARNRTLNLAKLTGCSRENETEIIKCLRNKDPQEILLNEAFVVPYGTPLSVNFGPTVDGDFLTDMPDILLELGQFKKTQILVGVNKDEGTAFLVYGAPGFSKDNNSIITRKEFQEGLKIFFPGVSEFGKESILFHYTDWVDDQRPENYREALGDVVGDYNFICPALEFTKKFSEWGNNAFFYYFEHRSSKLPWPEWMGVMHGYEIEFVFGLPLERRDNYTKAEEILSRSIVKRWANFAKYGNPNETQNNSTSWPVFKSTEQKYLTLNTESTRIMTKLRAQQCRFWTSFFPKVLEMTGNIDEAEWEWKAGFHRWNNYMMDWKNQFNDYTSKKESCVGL
T3 sequence (P06276 29-602): as above

SMILES	CI (combination index), AChE (AChE; [4])	CI (combination index), AChE (AChE; [5])	CI (combination index), AChE (AChE; [6])	CI (combination index), AChE (AChE; [7])	CI (combination index), AChE (AChE; [8])	CI (combination index), AChE (AChE; [9])	CI (combination index), AChE (AChE; [10])	CI (combination index), AChE (AChE; [11])	CI (combination index), AChE (AChE; [12])	CI (combination index), AChE (AChE; [13])	CI (combination index), AChE (AChE; [14])	CI (combination index), AChE (AChE; [15])	CI (combination index), BuChE (BuChE; [16])	CI (combination index), BuChE (BuChE; [17])	CI (combination index), BuChE (BuChE; [18])	CI (combination index), BuChE (BuChE; [19])	CI (combination index), BuChE (BuChE; [20])	CI (combination index), BuChE (BuChE; [21])	CI (combination index), BuChE (BuChE; [22])	CI (combination index), BuChE (BuChE; [23])	also measured
OC1(c2ccc(Cl)c(C(F)(F)F)c2)CCN(CCCC(c2ccc(F)cc2)c2ccc(F)cc2)CC1 [Penfluridol, penfluridol]	0.79	0.80	0.93	0.89	0.90	> 2.50	0.75	0.73	0.92	0.97	1.06	1.06	1.21	0.98	1.04	1.03	1.14	1.21	0.64	0.68	astrocyte viability compared with the control (pure AAPH) (astrocytes): statistically significant increase; Effect on IC50 AChE of rivastigmine (AChE; binary mixture vs pure rivastigmine ([…]), ↓ lower, ↑ higher IC50, - no change): does not affect; CI (combination index), BuChE (BuChE; [24]): 0.79; CI (combination index), BuChE (BuChE; [25]): 1.01; CI (combination index), BuChE (BuChE; [26]): 1.08; CI (combination index), BuChE (BuChE; [27]): 1.13; CI (combination index), BuChE (BuChE; [28]): 1.28; CI (combination index), BuChE (BuChE; [29]): 1.17; viability of HUVEC under AAPH (HUVEC cells; [30]): 82.9%; viability of HUVEC under AAPH (HUVEC cells; [31]): 80.5%; effect on Aβ aggregation within 10–90 min ([1]; 25 µg/L, at any of these time points): does not inhibit; AChE reaction velocity [2]: 0.226 ± 0.012 A/min
O=c1[nH]c2ccccc2n1C1CCN(CCCC(c2ccc(F)cc2)c2ccc(F)cc2)CC1 [Pimozide, pimozide]	0.50	0.63	0.62	0.65	0.68	0.26	0.37	0.38	0.47	0.56	0.62	0.65	0.57	0.55	0.78	0.76	0.91	0.79	> 2.50	> 2.50	astrocyte viability compared with the control (pure AAPH) (astrocytes): statistically significant increase; CI (combination index), AChE (AChE; [32]): 0.57; CI (combination index), BuChE (BuChE; [24]): > 2.50; CI (combination index), BuChE (BuChE; [25]): > 2.50; CI (combination index), BuChE (BuChE; [26]): > 2.50; CI (combination index), BuChE (BuChE; [27]): > 2.50; CI (combination index), BuChE (BuChE; [28]): > 2.50; CI (combination index), BuChE (BuChE; [29]): > 2.50; CI (combination index), BuChE (BuChE; rivastigmine (0.05–5 µmol/L) / pimozide at TPCmax, beyond the scale of Figure 5B): above 2.5; viability of HUVEC under AAPH (HUVEC cells; [30]): 65.2%; viability of HUVEC under AAPH (HUVEC cells; [31]): 64.2%; effect on Aβ aggregation after a longer incubation time ([1]; 24 and 48 h, both tested concentrations): substantially inhibit; AChE reaction velocity ([2]; 25 µg/L, control 0.263 ± 0.011 A/min): 0.253 ± 0.012 A/min; AChE reaction velocity ([2]; 100 µg/L, control 0.263 ± 0.011 A/min): 0.248 ± 0.009 A/min
O=C1O[C@H]([C@@H](O)CO)C(O)=C1O [AA, ascorbic acid]																					viability at 10 µg/mL (astrocytes; Homo sapiens, Astrocyte, 10 μg/mL, AAPH 15 mmol/L): 72.9%; viability at 10 µg/mL (HUVEC cells; Homo sapiens, HUVEC, 10 μg/mL): 81 ± 3.4%
O=C(CCCN1CCC(O)(c2ccc(Cl)cc2)CC1)c1ccc(F)cc1 [Haloperidol, haloperidol]	> 2.50	> 2.50	> 2.50	0.37	0.09	0.39	0.55	0.60	0.70	0.71	0.86	0.82	0.71	0.67	0.79	0.77	0.84	0.87	0.61	0.44	decrease of BuChE activity ([3]; 100 µg/L): 9.6 ± 2.3%; BuChE reaction velocity ([3]; 100 µg/L, control 0.252 ± 0.022 A/min): 0.228 ± 0.021 A/min; effect on BuChE activity ([3]; therapeutic concentrations): do not affect; CI (combination index), AChE (AChE; [32]): 0.79; CI (combination index), BuChE (BuChE; [24]): 0.67; CI (combination index), BuChE (BuChE; [25]): 0.87; CI (combination index), BuChE (BuChE; [26]): 1.06; CI (combination index), BuChE (BuChE; [27]): 1.03; CI (combination index), BuChE (BuChE; [28]): 1.19; CI (combination index), BuChE (BuChE; [29]): 1.22; effect on Aβ aggregation within 90 min of incubation ([1]; both tested concentrations (½ TPC and TPC)): ceases to significantly inhibit; effect on AChE activity ([2]; therapeutic concentrations): do not affect
